Measurements from patent US11844782B2, “Aqueous composition comprising dantrolene” (SPEPHARM AG, priority 2015, dated 2023).
Structures can show the parent of a compound that is named as a salt.

Assay: Solubility of dantrolene sodium salt with cyclodextrins at pH 6.0 to 10.0 (FIGS. 1-5, 11, 12)
Format: physicochemical
Conditions: pH 9; 2-hydroxypropyl-β-cyclodextrin 50 mg/ml, dantrolene sodium salt 1 mg/ml
Description: In these experiments four different cyclodextrins were tested in combination with dantrolene sodium salt. The concentration of the cyclodextrin compound was 50 mg/ml and the concentration of dantrolene sodium salt was 1 mg/ml. The pH values were adjusted by using a buffer composed of phosphate 25 mM and Tromethamine 25 mM in water to reach pH 6.0, 7.0, 8.0, 9.0 and 10.0, respectively. The obtained solutions were stored at room temperature and examined over the course of 10 days. The solubility of dantrolene sodium salt was determined after 24 and 48 hours. The solutions were analyzed by visual observation, whilst the content of the dantrolene sodium salt and the degradation profile were determined by HPLC and pH value monitoring.
Dantrolene content and degradation profiles were determined on an Agilent Series 1100 HPLC equipment (Agilent Technologies Inc, Santa Clara, CA, USA) fitted with a quaternary pump, an autosampler, a diode-array detector and a thermostated column compartment. Samples were analyzed on a Kinetex XB-C18 column (75×4.6 mm, 2.6 μm, Phenomenex) with mobile phases consisting of water with 0.1% formic acid (A) and acetonitrile with 0.1% formic acid (B) using a linear gradient from 15% to 45% (B) in 12 minutes. […]

SMILES: O=C1CN(/N=C/c2ccc(-c3ccc([N+](=O)[O-])cc3)o2)C(O)=N1 [dantrolene salt, dantrolene sodium salt]
- solubility of the dantrolene salt: almost complete solubility
